For 7 compounds, Ki results are on record in US4593018A, “Oligopeptide aldehydes useful as specific inhibitors of enterokinase” (National Research Development Corp., priority 1983, dated 1986).

Residues, ends and D or L forms follow the SMILES beside them. No end group written: not given here. *: point of attachment. Boc = CC(C)(C)OC(=O)* Bounds are passed on as bounds.

What all share (assay type): biochemical
In test [1] the target is T1, Human Enterokinase (Homo sapiens, UniProt P98073). Nature of the test: Inhibition of human enterokinase, Gly-(Asp)4-Lys-2-Nap as substrate. As to conditions: substrate Gly-(Asp)4-Lys-2-Nap; linear regression of 1/v against [I] at three substrate concentrations. The protocol:
(§1) Biological testing was carried out on the polyaspartyl argininal materials prepared as described above without further purification. […] Inhibition constants Ki for human and pig enterokinase were calculated using α-N-[^3 H] acetyl trypsinogen and Gly-(Asp)4 -Lys-2-Nap as substrates using linear regression analysis of l/v against [I] at three substrate concentrations. Inhibition of trypsin catalysed hydrolysis of both these substrates and Bz-Arg-OEt was expressed as the IC50, the concentration of inhibitor required to reduce trypsin activity by 50%. The results to activation peptides, four peptides of the invention, leupeptin and p-aminobenzamidine are set out in Tables 1 to 3 below.

For test [2], the target named is Pig Enterokinase (Sus scrofa, UniProt P98074). Put plainly: Inhibition of pig enterokinase, α-N-[3H]acetyl trypsinogen as substrate. The following applies: substrate α-N-[3H]acetyltrypsinogen. The protocol:
as §1

In test [3] the target is T1, Human Enterokinase. Put plainly: Inhibition of human enterokinase, α-N-[3H]acetyl trypsinogen as substrate. As to conditions: substrate α-N-[3H]acetyltrypsinogen. The protocol:
as §1

Chain of Pig Enterokinase (P98074 52-1034): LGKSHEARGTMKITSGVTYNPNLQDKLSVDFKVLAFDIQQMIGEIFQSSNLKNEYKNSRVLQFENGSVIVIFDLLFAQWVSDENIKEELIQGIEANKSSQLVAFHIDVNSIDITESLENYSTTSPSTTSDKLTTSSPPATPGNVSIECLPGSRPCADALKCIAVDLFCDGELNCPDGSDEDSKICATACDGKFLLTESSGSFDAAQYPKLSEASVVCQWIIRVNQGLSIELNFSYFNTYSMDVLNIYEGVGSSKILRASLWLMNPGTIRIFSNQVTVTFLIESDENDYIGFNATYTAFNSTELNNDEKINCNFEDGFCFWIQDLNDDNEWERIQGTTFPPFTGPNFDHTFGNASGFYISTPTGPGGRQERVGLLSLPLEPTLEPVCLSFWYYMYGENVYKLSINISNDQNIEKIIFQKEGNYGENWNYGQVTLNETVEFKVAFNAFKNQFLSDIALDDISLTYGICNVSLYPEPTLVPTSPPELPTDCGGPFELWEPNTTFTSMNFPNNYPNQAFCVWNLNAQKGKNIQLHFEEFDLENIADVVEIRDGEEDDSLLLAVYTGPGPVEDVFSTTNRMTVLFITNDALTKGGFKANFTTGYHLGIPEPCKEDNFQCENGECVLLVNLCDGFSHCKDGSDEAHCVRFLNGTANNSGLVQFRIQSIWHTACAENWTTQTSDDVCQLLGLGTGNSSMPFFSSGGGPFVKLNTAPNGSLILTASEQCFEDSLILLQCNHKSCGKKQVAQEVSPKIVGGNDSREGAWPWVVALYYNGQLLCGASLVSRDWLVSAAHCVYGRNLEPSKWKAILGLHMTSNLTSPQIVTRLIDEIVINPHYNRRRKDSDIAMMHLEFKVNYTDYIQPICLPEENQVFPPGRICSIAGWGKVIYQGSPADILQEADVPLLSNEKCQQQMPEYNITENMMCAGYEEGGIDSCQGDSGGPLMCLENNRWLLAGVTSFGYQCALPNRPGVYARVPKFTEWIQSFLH
T1 sequence (P98073 whole entry): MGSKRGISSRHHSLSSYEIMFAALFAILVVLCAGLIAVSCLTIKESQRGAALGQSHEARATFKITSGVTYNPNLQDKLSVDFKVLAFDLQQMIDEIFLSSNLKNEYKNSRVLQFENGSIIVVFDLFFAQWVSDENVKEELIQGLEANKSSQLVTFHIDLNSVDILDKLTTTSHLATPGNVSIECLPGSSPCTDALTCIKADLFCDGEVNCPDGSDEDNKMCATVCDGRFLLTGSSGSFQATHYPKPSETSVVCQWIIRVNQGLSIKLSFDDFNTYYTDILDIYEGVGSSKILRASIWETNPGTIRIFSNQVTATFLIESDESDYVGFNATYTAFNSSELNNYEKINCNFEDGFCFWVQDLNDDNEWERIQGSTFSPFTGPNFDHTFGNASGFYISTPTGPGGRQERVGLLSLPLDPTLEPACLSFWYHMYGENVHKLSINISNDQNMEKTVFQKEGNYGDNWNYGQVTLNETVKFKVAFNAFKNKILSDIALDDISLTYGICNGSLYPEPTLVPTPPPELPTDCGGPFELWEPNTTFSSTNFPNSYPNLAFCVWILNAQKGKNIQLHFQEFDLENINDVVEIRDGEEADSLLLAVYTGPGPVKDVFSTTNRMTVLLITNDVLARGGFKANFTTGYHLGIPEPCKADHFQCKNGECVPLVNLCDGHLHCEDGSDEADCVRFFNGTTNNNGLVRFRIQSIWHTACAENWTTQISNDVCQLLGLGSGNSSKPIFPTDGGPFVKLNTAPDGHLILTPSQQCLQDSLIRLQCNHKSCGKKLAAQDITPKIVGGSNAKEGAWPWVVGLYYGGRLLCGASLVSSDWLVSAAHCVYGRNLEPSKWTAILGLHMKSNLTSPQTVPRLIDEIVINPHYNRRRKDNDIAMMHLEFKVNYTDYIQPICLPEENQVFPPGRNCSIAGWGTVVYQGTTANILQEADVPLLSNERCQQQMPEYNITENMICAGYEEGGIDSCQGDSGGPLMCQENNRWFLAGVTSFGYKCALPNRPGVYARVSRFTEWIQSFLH

As to `CC(C)(C)OC(=O)N[C@@H](CC(=O)O)C(=O)N[C@@H](CC(=O)O)C(=O)N[C@H](C=O)CCCNC(=N)N` [Boc(Asp)2 Argal, Boc--(Asp)2 --Argininal] (Boc-Asp-Asp-Arg-aldehyde), the values for the Ki in test [1], in test [2] and in test [3] were 200 ± 50 nM, 50 ± 10 nM and 10 ± 5 nM, respectively.
Regarding `CC(=O)N[C@@H](CC(C)C)C(=O)N[C@@H](CC(C)C)C(=O)N[C@H](C=O)CCCNC(=N)N` [Leupeptin, reference compound], the Ki (commonly a measure of affinity in units of concentration, obtained from inhibition or displacement) is 1000 nM in test [1] and no less than 1000 nM in test [2].
As for `N=C(N)c1ccc(N)cc1` [p-aminobenzamidine, reference compound], the Ki in test [2] and in test [3] was no less than 50000 nM throughout.
Turning to `CC(C)(C)OC(=O)N[C@@H](CC(=O)O)C(=O)N[C@@H](CC(=O)O)C(=O)N[C@@H](CC(=O)O)C(=O)N[C@H](C=O)CCCNC(=N)N` [Boc(Asp)3 Argal, Boc--(Asp)3 --Argininal] (Boc-DDDR-aldehyde), the results for the inhibition constant Ki in test [1], in test [2] and in test [3] were 100 nM, 35 ± 5 nM and 20 ± 5 nM, respectively.
On the same counts, the results for `CC(C)(C)OC(=O)N[C@@H](CC(=O)O)C(=O)N[C@@H](CC(=O)O)C(=O)N[C@@H](CC(=O)O)C(=O)N[C@@H](CC(=O)O)C(=O)N[C@H](C=O)CCCNC(=N)N` [Boc(Asp)4 Argal, Boc--(Asp)4 --Argininal] (Boc-DDDDR-aldehyde) are 55 ± 5 nM, 20 ± 10 nM and 10 ± 5 nM.
In test [1], “APFDDDDK [Ala--Pro--Phe--(Asp)4 Lys, reference compound]” yielded a Ki of 750000 nM.
On the same count and under the same terms, under DDDDK [(Asp)4 Lys, reference compound] stands 100000 nM.
